Results published in patent US8143244B2, “Cyclopropyl fused indolobenzazepine HCV NS5B inhibitors” (Bristol-Myers Squibb Company, priority 2009, dated 2012).
Like-named read-outs stand apart in the source and are kept apart here.

What was measured:
HCV replicon = HCV replicon FRET / luciferase assay (NeoLuc); type: cell-based, HCV genotype 1b; details: Hepatitis C virus, HCV replicon cells
Source text: FRET Assay Preparation. To perform the HCV FRET screening assay, 96-well cell culture plates were used. The FRET peptide (Anaspec, Inc.) (Taliani et al., Anal. Biochem. 1996, 240, 60-67) contains a fluorescence donor, EDANS, near one end of the peptide and an acceptor, DABCYL, near the other end. The fluorescence of the peptide is quenched by […] resonance energy transfer (RET) between the donor and the acceptor, but as the NS3 protease cleaves the peptide the products are released from RET quenching and the fluorescence of the donor becomes apparent. The assay reagent was made as follows: 5× cell Luciferase cell culture lysis reagent from Promega (#E153A) diluted to 1× with dH2O, NaCl added to 150 mM final, the FRET peptide diluted to 20 μM final from a 2 mM stock.
To prepare plates, HCV replicon cells, with or without a Renilla luciferase reporter gene, were trypsinized and placed into each well of a 96-well plate with titrated test compounds added in columns 3 through 12; columns 1 and 2 contained a control compound (HCV protease inhibitor), and the bottom row contained cells without compound. The plates were then placed in a CO2 incubator at 37° C.
Assays. Subsequent to addition of the test compounds described above (FRET Assay Preparation), at various times the plate was removed and Alamar blue solution (Trek Diagnostics, #00-100) was added per well as a measure of cellular toxicity. After reading in a Cytoflour 4000 instrument (PE Biosystems), plates were rinsed with PBS and then used for FRET assay by the addition of 30 ul of the FRET peptide assay reagent described above (FRET Assay Preparation) per well. The plate was then placed into the Cytoflour 4000 instrument which had been set to 340 excite/490 emission, automatic mode for 20 cycles and the plate read in a kinetic mode. Typically, the signal to noise using an endpoint analysis after the reads was at least three-fold. Alternatively, after Alamar blue reading, plates were rinsed with PBS, 50 ul of DMEM (high glucose) without phenol red was added and plates were then used for luciferase assay using the Promega Dual-Glo Luciferase Assay System,
Compound analysis was deteiniined by quantification of the relative HCV replicon inhibition and the relative cytotoxicity values. To calculate cytoxicity values, the average Alamar Blue fluorescence signals from the control wells were set as 100% non-toxic. The individual signals in each of the compound test wells were then divided by the average control signal and multiplied by 100% to determine […]. To calculate the HCV replicon inhibition values, an average background value was obtained from the two wells containing the highest amount of HCV protease inhibitor at the end of the assay period. These numbers were similar to those obtained from naïve Huh-7 cells.
The background numbers were then subtracted from the average signal obtained from the control wells and this number was used as 100% activity. The individual signals in each of the compound test wells were then divided by the averaged control values after background subtraction and multiplied by 100% to determine percent activity. EC50 values for a protease inhibitor titration were calculated as the concentration which caused a 50% reduction in FRET or luciferase activity. The two numbers generated for the compound plate, percent cytoxicity and percent activity were used to determine compounds of interest for further analysis.

HCV NS5B = molecular target: T1, HCV NS5B (Hepatitis C virus genotype 1b, UniProt Q9WMX2); assay: HCV NS5B RdRp enzyme assay; type: biochemical; details: HCV NS5B RdRp genotype 1b
T1 construct: The protein was expressed with an 18 amino acid C-terminal truncation to enhance the solubility; made in house; host or cells: E. coli BL21(DE3)
Procedure: HCV NS5B RdRp cloning, expression, and purification. The cDNA encoding the NS5B protein of HCV, genotype 1b, was cloned into the pET21a expression vector. The protein was expressed with an 18 amino acid C-terminal truncation to enhance the solubility. The E. coli competent cell line BL21(DE3) was used for expression of the protein. Cultures were grown at 37° C. for ˜4 hours until the cultures reached an optical density of 2.0 at 600 nm. The cultures were cooled to 20° C. and induced with 1 mM IPTG. Fresh ampicillin was added to a final concentration of 50 μg/ml and the cells were grown overnight at 20° C.
Cell pellets (3L) were lysed for purification to yield 15-24 mgs of purified NS5B. The lysis buffer consisted of 20 mM Tris-HCl, pH 7.4, 500 mM NaCl, 0.5% triton X-100, 1 mM DTT, 1 mM EDTA, 20% glycerol, 0.5 mg/ml lysozyme, 10 mM MgCl2, 15 ug/ml deoxyribonuclease I, and Complete TM protease inhibitor tablets (Roche). After addition of the lysis buffer, frozen cell pellets were resuspended using a tissue homogenizer. To reduce the viscosity of the sample, aliquots of the lysate were sonicated on ice using a microtip attached to a Branson sonicator. The sonicated lysate was centrifuged at 100,000×g for 1 hr at 4° C. and filtered through a 0.2 μm filter unit (Corning).
The protein was purified using three sequential chromatography steps: Heparin sepharose CL-6B, polyU sepharose 4B, and Hitrap SP sepharose (Pharmacia). The chromatography buffers were identical to the lysis buffer but contained no lysozyme, deoxyribonuclease I, MgCl2 or protease inhibitor and the NaCl concentration of the buffer was adjusted according to the requirements for charging the protein onto the column. Each column was eluted with a NaCl gradient which varied in length from 5-50 column volumes depending on the column type. After the final chromatography step, the resulting purity of the enzyme is >90% based on SDS-PAGE analysis. The enzyme was aliquoted and stored at −80° C.
Standard HCV NS5B RdRp enzyme assay. HCV RdRp genotype 1b assays were run in a final volume of 60 μl in 96 well plates (Costar 3912). The assay buffer is composed of 20 mM Hepes, pH 7.5, 2.5 mM KCl, 2.5 mM MgCl2, 1 mM DTT, 1.6 U RNAse inhibitor (Promega N2515), 0.1 mg/ml BSA (Promega R3961), and 2% glycerol. All compounds were serially diluted (3-fold) in DMSO and diluted further in water such that the final concentration of DMSO in the assay was 2%. HCV RdRp genotype 1b enzyme was used at a final concentration of 28 nM. A polyA template was used at 6 nM, and a biotinylated oligo-dT12 primer was used at 180 nM final concentration. Template was obtained commercially (Amersham 27-4110). Biotinylated primer was prepared by Sigma Genosys. 3H-UTP was used at 0.6 μCi (0.29 μM total UTP). Reactions were initiated by the addition of enzyme, incubated at 30° C. for 60 min, and stopped by adding 25 μl of 50 mM EDTA containing SPA beads (4 μg/μl, Amersham RPNQ 0007). Plates were read on a Packard Top Count NXT after >1 hr incubation at room temperature.
Modified HCV NS5B RdRp enzyme assay. A modified enzyme assay was performed essentially as described for the standard enzyme assay except for the following: The biotinylated oligo dT12 primer was precaptured on streptavidin-coated SPA beads by mixing primer and beads in assay buffer and incubating at room temperature for one hour. Unbound primer was removed after centrifugation. The primer-bound beads were resuspended in 20 mM Hepes buffer, pH 7.5 and used in the assay at final concentrations of 20 nM primer and 0.67 μg/μl beads. Order of addition in the assay: enzyme (14 nM) was added to diluted compound followed by the addition of a mixture of template (0.2 nM), 3H-UTP (0.6 μCi, 0.29 μM), and primer-bound beads, to initiate the reaction; concentrations given are final. Reactions were allowed to proceed for 4 hours at 30° C.
IC50 values for compounds were determined using seven different [I]. […]

[1] = genotype 1b, read-out: NeoLuc EC50, Table 1, genotype 1b

T1 sequence (Q9WMX2 2420-2992): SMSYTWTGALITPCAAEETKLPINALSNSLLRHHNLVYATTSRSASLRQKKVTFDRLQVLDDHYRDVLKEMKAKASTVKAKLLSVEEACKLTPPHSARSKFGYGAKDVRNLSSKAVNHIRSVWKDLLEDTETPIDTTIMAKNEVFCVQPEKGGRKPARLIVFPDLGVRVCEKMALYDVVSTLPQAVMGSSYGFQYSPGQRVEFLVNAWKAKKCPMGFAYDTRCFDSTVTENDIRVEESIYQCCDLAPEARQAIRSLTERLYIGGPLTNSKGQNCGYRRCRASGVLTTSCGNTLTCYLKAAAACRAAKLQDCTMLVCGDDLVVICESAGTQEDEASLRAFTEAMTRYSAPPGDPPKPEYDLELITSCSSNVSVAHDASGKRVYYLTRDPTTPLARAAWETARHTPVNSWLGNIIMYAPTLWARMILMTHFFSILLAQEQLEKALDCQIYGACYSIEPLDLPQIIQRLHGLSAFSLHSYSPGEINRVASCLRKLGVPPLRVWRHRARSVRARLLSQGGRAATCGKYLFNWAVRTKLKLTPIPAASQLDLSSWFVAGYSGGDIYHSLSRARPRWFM

COc1ccc2c(c1)C1CC1(C(=O)N1CC34CNCC3(COC4)C1)Cn1c-2c(C2CCCCC2)c2ccc(C(=O)NS(=O)(=O)C(C)C)cc21 (stereo not shown)
EC50 (HCV replicon; [1]): 1.9 to 500 nM | IC50 (HCV NS5B; Table 1): 1.9 to 500 nM

C=C(/C=C1\C(=C)c2c(C3CCCCC3)c3ccc(C(=O)NS(=O)(=O)C(C)C)cc3n2CC2(C(=O)N3CC45CNCC4(CNC5)C3)CC12)OC (stereo not shown)
EC50 (HCV replicon; [1]): > 1000 nM | IC50 (HCV NS5B; Table 1): < 2.3 nM

COc1ccc2c(c1)C1CC1(C(=O)N1CC34COCC3(CN(C)C4)C1)Cn1c-2c(C2CCCCC2)c2ccc(C(=O)NS(=O)(=O)C(C)C)cc21 (stereo not shown)
EC50 (HCV replicon; [1]): 1.9 to 500 nM | IC50 (HCV NS5B; Table 1): < 2.3 nM

COc1ccc2c(c1)C1CC1(C(=O)N1CC34CN(C)CC3(CN(C)C4)C1)Cn1c-2c(C2CCCCC2)c2ccc(C(=O)NS(=O)(=O)C(C)C)cc21 (stereo not shown)
EC50 (HCV replicon; [1]): 1.9 to 500 nM | IC50 (HCV NS5B; Table 1): < 2.3 nM

C=C(C)S(=O)(=O)NC(=O)c1ccc2c(C3CCCCC3)c3n(c2c1)C[C@@]1(C(=O)N2CC45CNCC4(COC5)C2)C[C@H]1c1cc(OC)ccc1-3 (stereo partly shown)
EC50 (HCV replicon; [1]): 1.9 to 500 nM | IC50 (HCV NS5B; Table 1): < 2.3 nM

COc1ccc2c(c1)C1CC1(C(=O)N1CC34CNCC3(COC4)C1)Cn1c-2c(C2CCCCC2)c2ccc(C(=O)NS(=O)(=O)CC(C)C)cc21 (stereo not shown)
EC50 (HCV replicon; [1]): 1.9 to 500 nM | IC50 (HCV NS5B; Table 1): 1.9 to 500 nM

CCN1CC23COCC2(C1)CN(C(=O)C12CC1c1cc(OC)ccc1-c1c(C4CCCCC4)c4ccc(C(=O)NS(=O)(=O)C(C)C)cc4n1C2)C3 (stereo not shown)
EC50 (HCV replicon; [1]): 1.9 to 500 nM | IC50 (HCV NS5B; Table 1): 1.9 to 500 nM

COc1ccc2c(c1)C1CC1(C(=O)N1CC34COCC3(CN(C)C4)C1)Cn1c-2c(C2CCCCC2)c2ccc(C(=O)NS(=O)(=O)CC(C)C)cc21 (stereo not shown)
EC50 (HCV replicon; [1]): 1.9 to 500 nM | IC50 (HCV NS5B; Table 1): 1.9 to 500 nM

COC[C@]12CNC[C@@]1(COC)CN(C(=O)C13CC1c1cc(OC)ccc1-c1c(C4CCCCC4)c4ccc(C(=O)NS(=O)(=O)C(C)C)cc4n1C3)C2 (stereo partly shown)
EC50 (HCV replicon; [1]): 1.9 to 500 nM

C=C(C)S(=O)(=O)NC(=O)c1ccc2c(C3CCCCC3)c3n(c2c1)C[C@@]1(C(=O)N2C[C@@]4(COC)CNC[C@@]4(COC)C2)C[C@H]1c1cc(OC)ccc1-3
EC50 (HCV replicon; [1]): 500 to 1000 nM | IC50 (HCV NS5B; Table 1): < 20 nM

COC[C@@]12CN(C)C[C@]1(COC)CN(C(=O)C13CC1c1cc(OC)ccc1-c1c(C4CCCCC4)c4ccc(C(=O)NS(=O)(=O)C(C)C)cc4n1C3)C2 (stereo partly shown)
EC50 (HCV replicon; [1]): 1.9 to 500 nM | IC50 (HCV NS5B; Table 1): 1.9 to 500 nM

C=C(C)S(=O)(=O)NC(=O)c1ccc2c(C3CCCCC3)c3n(c2c1)C[C@@]1(C(=O)N2C[C@]4(COC)CN(C)C[C@]4(COC)C2)C[C@H]1c1cc(OC)ccc1-3
EC50 (HCV replicon; [1]): 1.9 to 500 nM | IC50 (HCV NS5B; Table 1): < 20 nM

COC(=O)N1CC23COCC2(C1)CN(C(=O)[C@]12C[C@H]1c1cc(OC)ccc1-c1c(C4CCCCC4)c4ccc(C(=O)NS(=O)(=O)C(C)C)cc4n1C2)C3 (stereo partly shown)
IC50 (HCV NS5B; Table 1): 1.9 to 500 nM

COC(=O)N1CC23COCC2(C1)CN(C(=O)[C@]12C[C@H]1c1cc(OC)ccc1-c1c(C4CCCCC4)c4ccc(C(=O)NS(=O)(=O)N(C)C)cc4n1C2)C3 (stereo partly shown)
IC50 (HCV NS5B; Table 1): > 1000 nM

CNC(=O)N1CC23COCC2(C1)CN(C(=O)[C@]12C[C@H]1c1cc(OC)ccc1-c1c(C4CCCCC4)c4ccc(C(=O)NS(=O)(=O)C(C)C)cc4n1C2)C3 (stereo partly shown)
EC50 (HCV replicon; [1]): 1.9 to 500 nM | IC50 (HCV NS5B; Table 1): 1.9 to 500 nM

CNC(=O)N1CC23COCC2(C1)CN(C(=O)[C@]12C[C@H]1c1cc(OC)ccc1-c1c(C4CCCCC4)c4ccc(C(=O)NS(=O)(=O)N(C)C)cc4n1C2)C3 (stereo partly shown)
EC50 (HCV replicon; [1]): 1.9 to 500 nM | IC50 (HCV NS5B; Table 1): 1.9 to 500 nM

COc1ccc2c(c1)[C@@H]1C[C@]1(C(=O)N1CC34COCC3(C1)CN(C1CC1)C4)Cn1c-2c(C2CCCCC2)c2ccc(C(=O)NS(=O)(=O)N(C)C)cc21 (stereo partly shown)
EC50 (HCV replicon; [1]): 1.9 to 500 nM | IC50 (HCV NS5B; Table 1): 1.9 to 500 nM

COc1ccc2c(c1)[C@@H]1C[C@]1(C(=O)N1CC34CCC3(C1)CN(C1CC1)C4)Cn1c-2c(C2CCCCC2)c2ccc(C(=O)NS(=O)(=O)C(C)C)cc21 (stereo partly shown)
EC50 (HCV replicon; [1]): 1.9 to 500 nM | IC50 (HCV NS5B; Table 1): 1.9 to 500 nM

CCOCCN1CC23COCC2(C1)CN(C(=O)[C@]12C[C@H]1c1cc(OC)ccc1-c1c(C4CCCCC4)c4ccc(C(=O)NS(=O)(=O)C(C)C)cc4n1C2)C3 (stereo partly shown) [drawing 101]
EC50 (HCV replicon; [1]): 1.9 to 500 nM | IC50 (HCV NS5B; Table 1): 1.9 to 500 nM

CCOCCN1CC23COCC2(C1)CN(C(=O)[C@]12C[C@H]1c1cc(OC)ccc1-c1c(C4CCCCC4)c4ccc(C(=O)NS(=O)(=O)C(C)C)cc4n1C2)C3 (stereo partly shown) [drawing 112]
EC50 (HCV replicon; Table 2, read-out: NeoLuc EC50): 7.69 nM | IC50 (HCV NS5B; Table 2): 1.9 nM
